Measured values published in ChEMBL document CHEMBL1150225, “Cytotoxic cholestane glycosides from the bulbs of Ornithogalum saundersiae” (J Nat Prod, 2001).

Assays:
Format in all cases: functional
SR = experiment: Cytotoxicity against human SR cells
SF-268 = experiment: Cytotoxicity against human SF268 cells
SF-539 = experiment: Cytotoxicity against human SF539 cells
SK-MEL-5 = experiment: Cytotoxicity against human SK-MEL-5 cells
NCI-H522 = experiment: Cytotoxicity against human NCI-H522 cells
A498 = experiment: Cytotoxicity against human A498 cells
SF-295 = experiment: Cytotoxicity against human SF295 cells
786-0 = experiment: Cytotoxicity against human 786-0 cells
DU-145 = experiment: Cytotoxicity against human DU145 cells
KM12 = experiment: Cytotoxicity against human KM12 cells
EKVX = experiment: Cytotoxicity against human EKVX cells
COLO 205 = experiment: Cytotoxicity against human COLO205 cells
MDA-N = experiment: Cytotoxicity against human MDA-N cells
A549 = experiment: Cytotoxicity against human A549 cells
HOP-62 = experiment: Cytotoxicity against human HOP62 cells
M14 = experiment: Cytotoxicity against human M14 cells
HCT-116 = experiment: Cytotoxicity against human HCT116 cells
CAKI-1 = experiment: Cytotoxicity against human Caki1 cells
SK-MEL-2 = experiment: Cytotoxicity against human SK-MEL-2 cells
UACC-62 = experiment: Cytotoxicity against human UACC62 cells
OVCAR-5 = experiment: Cytotoxicity against human OVCAR5 cells
SW-620 = experiment: Cytotoxicity against human SW620 cells
UO-31 = experiment: Cytotoxicity against human UO31 cells
MOLT-4 = experiment: Cytotoxicity against human MOLT4 cells
[1] = Cytotoxicity against human MCF7/ADR cells; details: NCI/ADR-RES
HCC 2998 = experiment: Cytotoxicity against human HCC2998 cells
PC-3 = experiment: Cytotoxicity against human PC3 cells
TK-10 = experiment: Cytotoxicity against human TK10 cells
MDA-MB-435 = experiment: Cytotoxicity against human MDA-MB-435 cells
K562 = experiment: Cytotoxicity against human K562 cells
[2] = read-out: pLC50 (the source's name) (converted)

## COc1ccc(C(=O)O[C@H]2[C@H](O[C@@H]3[C@@H](OC(C)=O)[C@H](O[C@H]4C[C@H]5[C@@H]6CC=C7C[C@@H](O)CC[C@]7(C)[C@H]6CC[C@]5(C)[C@@]4(O)[C@H](C)C(=O)CCC(C)C)OC[C@@H]3O)OC[C@@H](O)[C@@H]2O)cc1
SR; [2]
  CC50: 6310 nM
SR; read-out: pTGI (converted)
  TGI: 129 nM
SF-268
  GI50: 2.4 nM
SF-268; [2]
  CC50: 7410 nM
SF-268; read-out: pTGI (converted)
  TGI: 851 nM
SF-539
  GI50: 0.1 nM
SF-539; [2]
  CC50: 182 nM
SF-539; read-out: pTGI (converted)
  TGI: 4.47 nM
SK-MEL-5
  GI50: 0.759 nM
SK-MEL-5; [2]
  CC50: 282 nM
SK-MEL-5; read-out: pTGI (converted)
  TGI: 43.6 nM
NCI-H522
  GI50: 0.363 nM
NCI-H522; [2]
  CC50: 324 nM
NCI-H522; read-out: pTGI (converted)
  TGI: 5.37 nM
A498
  GI50: 0.24 nM
A498; [2]
  CC50: 141 nM
A498; read-out: pTGI (converted)
  TGI: 2.19 nM
SF-295
  GI50: 0.0479 nM
SF-295; [2]
  CC50: 30.2 nM
SF-295; read-out: pTGI (converted)
  TGI: 2.29 nM
786-0
  GI50: 0.0617 nM
786-0; [2]
  CC50: 3470 nM
786-0; read-out: pTGI (converted)
  TGI: 1200 nM
DU-145
  GI50: 3.71 nM
DU-145; [2]
  CC50: 4270 nM
DU-145; read-out: pTGI (converted)
  TGI: 1510 nM
KM12
  GI50: 0.407 nM
KM12; [2]
  CC50: 1100 nM
KM12; read-out: pTGI (converted)
  TGI: 39.8 nM
EKVX
  GI50: 0.182 nM
EKVX; [2]
  CC50: 6610 nM
EKVX; read-out: pTGI (converted)
  TGI: 550 nM
COLO 205
  GI50: 1 nM
COLO 205; [2]
  CC50: 288 nM
COLO 205; read-out: pTGI (converted)
  TGI: 1.58 nM
MDA-N
  GI50: 0.776 nM
MDA-N; [2]
  CC50: 490 nM
MDA-N; read-out: pTGI (converted)
  TGI: 8.91 nM
A549
  GI50: 0.457 nM
A549; [2]
  CC50: 8130 nM
A549; read-out: pTGI (converted)
  TGI: 2090 nM
HOP-62
  GI50: 0.159 nM
HOP-62; [2]
  CC50: 129 nM
HOP-62; read-out: pTGI (converted)
  TGI: 2 nM
M14
  GI50: 0.269 nM
M14; [2]
  CC50: 51.3 nM
M14; read-out: pTGI (converted)
  TGI: 0.955 nM
HCT-116
  GI50: 0.38 nM
HCT-116; [2]
  CC50: 1290 nM
HCT-116; read-out: pTGI (converted)
  TGI: 191 nM
CAKI-1
  GI50: 1.7 nM
CAKI-1; [2]
  CC50: 871 nM
CAKI-1; read-out: pTGI (converted)
  TGI: 49 nM
SK-MEL-2
  GI50: 0.347 nM
SK-MEL-2; [2]
  CC50: 5500 nM
SK-MEL-2; read-out: pTGI (converted)
  TGI: 17 nM
UACC-62
  GI50: 0.309 nM
UACC-62; [2]
  CC50: 3.63 nM
UACC-62; read-out: pTGI (converted)
  TGI: 1.29 nM
OVCAR-5
  GI50: 50.1 nM
OVCAR-5; [2]
  CC50: 5890 nM
OVCAR-5; read-out: pTGI (converted)
  TGI: 2000 nM
SW-620
  GI50: 0.129 nM
SW-620; [2]
  CC50: 21.9 nM
SW-620; read-out: pTGI (converted)
  TGI: 0.549 nM
UO-31
  GI50: 0.617 nM
UO-31; [2]
  CC50: 30.2 nM
UO-31; read-out: pTGI (converted)
  TGI: 1.41 nM
MOLT-4
  GI50: 0.0977 nM
MOLT-4; [2]
  CC50: 457 nM
MOLT-4; read-out: pTGI (converted)
  TGI: 11 nM
[1]
  GI50: 24 nM
[1]; [2]
  CC50: 6610 nM
[1]; read-out: pTGI (converted)
  TGI: 2000 nM
HCC 2998
  GI50: 30.2 nM
HCC 2998; [2]
  CC50: 4370 nM
HCC 2998; read-out: pTGI (converted)
  TGI: 1910 nM
PC-3
  GI50: 0.209 nM
PC-3; [2]
  CC50: 389 nM
PC-3; read-out: pTGI (converted)
  TGI: 1.58 nM
TK-10
  GI50: 77.6 nM
TK-10; [2]
  CC50: 8910 nM
TK-10; read-out: pTGI (converted)
  TGI: 1910 nM
MDA-MB-435
  GI50: 0.575 nM
MDA-MB-435; [2]
  CC50: 407 nM
MDA-MB-435; read-out: pTGI (converted)
  TGI: 8.91 nM
K562
  GI50: 0.219 nM
K562; [2]
  CC50: 10000 nM
K562; read-out: pTGI (converted)
  TGI: 14.1 nM
